How the values were obtained:
Test in all cases: relative viability (nuclei count vs DMSO), 5 days (fraction); higher = more cells survive
Cabozantinib + AZD7762 = compound: COc1cc2nccc(Oc3ccc(NC(=O)C4(C(=O)Nc5ccc(F)cc5)CC4)cc3)c2cc1OC [Cabozantinib] + NC(=O)Nc1cc(-c2cccc(F)c2)sc1C(=O)N[C@H]1CCCNC1 [AZD7762] (partner 0.2 µM)
In short: (§1)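 Relative viability is defined as nuclei in treated wells over nuclei in vehicle wells. Duplicate plates were run and medians reported. Lung cancer cell lines in 1536-well plates were dosed by pin tool one day after seeding, with one drug or with a fixed anchor-drug dose plus five library-drug doses (not always all listed) in √10 steps, and nuclei were counted after 5 days.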

Kobe2602 + OSI-027 = compound: C1=CC(=CC=C1NC(=S)NNC2=C(C=C(C=C2[N+](=O)[O-])C(F)(F)F)[N+](=O)[O-])F [Kobe2602] + COc1cccc2cc(-c3nc([C@H]4CC[C@H](C(=O)O)CC4)n4ncnc(N)c34)[nH]c12 [OSI-027] (partner 0.5 µM)
In short: as §1

Zosuquidar + Phenformin = compound: O[C@@H](COc1cccc2ncccc12)CN1CCN([C@@H]2c3ccccc3[C@@H]3[C@H](c4ccccc42)C3(F)F)CC1 [Zosuquidar] + N=C(N)NC(=N)NCCc1ccccc1 [Phenformin] (partner 250 µM)
In short: as §1

Zosuquidar + OSI-027 = compound: O[C@@H](COc1cccc2ncccc12)CN1CCN([C@@H]2c3ccccc3[C@@H]3[C@H](c4ccccc42)C3(F)F)CC1 [Zosuquidar] + COc1cccc2cc(-c3nc([C@H]4CC[C@H](C(=O)O)CC4)n4ncnc(N)c34)[nH]c12 [OSI-027] (partner 0.5 µM)
In short: as §1

Cell Line	relative viability (Cabozantinib + AZD7762; first compound 0.06325 µM)	relative viability (Cabozantinib + AZD7762; first compound 0.2 µM)	relative viability (Cabozantinib + AZD7762; first compound 0.6325 µM)	relative viability (Cabozantinib + AZD7762; first compound 2 µM)	relative viability (Kobe2602 + OSI-027; first compound 0.2 µM)	relative viability (Kobe2602 + OSI-027; first compound 0.6325 µM)	relative viability (Kobe2602 + OSI-027; first compound 2 µM)	relative viability (Kobe2602 + OSI-027; first compound 6.325 µM)	relative viability (Kobe2602 + OSI-027; first compound 20 µM)	relative viability (Zosuquidar + Phenformin; first compound 0.01 µM)	relative viability (Zosuquidar + Phenformin; first compound 0.03162 µM)	relative viability (Zosuquidar + Phenformin; first compound 0.1 µM)	relative viability (Zosuquidar + Phenformin; first compound 0.3162 µM)	relative viability (Zosuquidar + Phenformin; first compound 1 µM)	relative viability (Zosuquidar + OSI-027; first compound 0.01 µM)	relative viability (Zosuquidar + OSI-027; first compound 0.03162 µM)	relative viability (Zosuquidar + OSI-027; first compound 0.1 µM)	relative viability (Zosuquidar + OSI-027; first compound 0.3162 µM)	relative viability (Zosuquidar + OSI-027; first compound 1 µM)	relative viability (Cabozantinib + AZD7762; first compound 0.02 µM)
LCLC-97TM1	0.305	0.285	0.195	0.304	0.475	0.488	0.551	0.556	0.584	0.409	0.442	0.46	0.454	0.445	0.469	0.507	0.366	0.502	0.641	–
LU99A	0.376	0.411	0.279	0.397	0.336	0.329	0.281	0.342	0.333	0.859	0.793	0.834	0.971	0.808	0.279	0.276	0.253	0.322	0.288	0.292
NCI-H1355	0.919	0.83	0.754	0.746	0.395	0.389	0.411	0.41	0.441	0.466	0.438	0.371	0.502	0.471	0.395	0.409	0.299	0.449	0.386	0.703
HARA	0.332	–	0.339	0.301	0.59	0.547	0.407	0.542	0.524	0.408	–	0.489	0.41	0.451	0.49	–	0.415	0.564	0.398	0.291
LXF-289	1.07	1.13	1.09	1.06	0.836	0.836	0.777	0.879	0.87	0.52	0.502	0.484	0.543	0.5	0.744	0.862	0.741	0.856	0.915	1.15
201T	0.736	0.591	0.675	0.695	0.815	0.802	0.764	–	0.603	0.449	0.444	0.404	0.468	0.472	0.777	0.722	0.646	0.803	0.741	0.624
HCC-827	0.268	–	0.225	0.189	0.787	0.743	0.755	0.762	0.718	0.351	0.467	0.333	0.413	0.398	0.828	0.723	0.673	0.828	0.788	0.189
NCI-H1703	0.129	0.133	0.136	0.139	–	–	–	–	–	–	–	–	–	–	–	–	–	–	–	0.118
NCI-H1975	0.828	0.683	0.678	0.682	0.673	0.79	0.687	0.676	0.669	0.397	0.378	0.417	0.42	0.399	0.789	0.684	0.679	0.885	0.832	0.673
NCI-H2023	–	–	–	–	0.394	0.387	0.346	0.345	0.278	0.387	0.426	0.385	0.408	0.396	0.354	0.401	0.325	0.665	0.427	–
ChaGo-K-1	0.943	0.868	0.872	0.857	0.485	0.543	0.622	0.541	0.47	0.573	0.419	0.554	0.506	0.51	0.595	0.479	0.644	0.553	0.522	0.927
COR-L 105	–	–	–	–	0.631	0.784	0.623	0.82	0.843	0.547	0.404	0.409	0.478	0.437	0.595	0.679	0.519	0.79	0.613	–
SK-MES-1	–	–	–	–	0.591	0.637	0.488	0.642	0.226	0.661	0.622	0.644	0.607	0.637	0.639	0.665	0.549	0.638	0.652	–
A549	–	–	–	–	–	–	–	–	–	0.19	0.176	0.145	0.255	0.172	–	–	–	–	–	–
NCI-H23	0.312	0.248	0.261	0.241	0.499	0.673	0.541	0.638	0.667	0.722	0.708	0.78	0.895	0.805	0.644	0.636	0.525	0.705	0.641	–
NCI-H1993	0.556	0.513	0.461	0.56	0.552	0.511	0.544	0.569	0.597	0.422	0.596	0.438	0.476	0.533	0.632	0.677	0.488	0.497	0.525	0.589

Cell Line	relative viability (Cabozantinib + AZD7762; first compound 0.06325 µM)	relative viability (Cabozantinib + AZD7762; first compound 0.2 µM)	relative viability (Cabozantinib + AZD7762; first compound 0.6325 µM)	relative viability (Cabozantinib + AZD7762; first compound 2 µM)	relative viability (Kobe2602 + OSI-027; first compound 0.2 µM)	relative viability (Kobe2602 + OSI-027; first compound 0.6325 µM)	relative viability (Kobe2602 + OSI-027; first compound 2 µM)	relative viability (Kobe2602 + OSI-027; first compound 6.325 µM)	relative viability (Kobe2602 + OSI-027; first compound 20 µM)	relative viability (Zosuquidar + Phenformin; first compound 0.01 µM)	relative viability (Zosuquidar + Phenformin; first compound 0.03162 µM)	relative viability (Zosuquidar + Phenformin; first compound 0.1 µM)	relative viability (Zosuquidar + Phenformin; first compound 0.3162 µM)	relative viability (Zosuquidar + Phenformin; first compound 1 µM)	relative viability (Zosuquidar + OSI-027; first compound 0.01 µM)	relative viability (Zosuquidar + OSI-027; first compound 0.03162 µM)	relative viability (Zosuquidar + OSI-027; first compound 0.1 µM)	relative viability (Zosuquidar + OSI-027; first compound 0.3162 µM)	relative viability (Zosuquidar + OSI-027; first compound 1 µM)	relative viability (Cabozantinib + AZD7762; first compound 0.02 µM)
NCI-H1648	0.737	–	0.721	0.73	0.246	0.277	0.248	0.26	0.25	–	–	–	–	–	0.243	–	0.234	0.288	0.245	0.792
NCI-H1623	–	–	–	–	0.457	0.448	0.424	0.374	0.433	0.622	0.662	0.537	0.613	0.576	0.432	0.464	0.421	0.441	0.43	–
NCI-H460	0.801	0.68	0.623	0.63	0.662	0.722	0.695	0.629	0.558	0.48	0.508	0.445	0.529	0.498	0.674	0.725	0.522	0.788	0.694	0.633
NCI-H3122	1.05	1.03	0.941	1.03	0.902	0.903	0.957	0.853	1.12	0.346	0.38	–	0.377	0.319	0.921	1.03	–	1.36	0.936	1.04
HCC-44	1.03	1.08	1.07	1.12	0.484	0.597	0.377	0.586	0.683	0.259	0.191	0.161	0.336	0.209	0.53	0.391	0.542	0.521	0.581	1.04
HCC-78	0.699	0.466	0.46	0.39	0.39	0.375	0.722	0.385	0.44	0.801	0.71	–	0.707	0.558	0.346	0.356	–	0.422	0.294	–
COR-L23	–	–	–	–	0.744	0.782	0.71	0.811	0.737	0.422	0.413	0.416	0.514	0.453	0.738	0.702	0.688	0.858	0.757	–
NCI-H2009	–	–	–	–	0.568	0.737	0.591	0.637	0.452	0.503	0.47	0.481	0.518	0.498	0.64	0.684	0.529	0.782	0.645	–
NCI-H322M	0.716	0.543	0.725	0.612	0.573	0.623	0.544	0.559	0.557	0.809	0.856	0.586	0.793	0.858	0.529	0.67	0.485	0.66	0.575	0.574
NCI-H2228	–	–	–	–	0.658	0.684	0.549	0.416	0.722	0.291	0.338	0.256	0.47	0.257	0.614	0.635	0.604	0.745	0.428	–
NCI-H1563	–	–	–	–	0.721	0.743	0.797	0.757	0.754	0.671	0.681	0.595	0.666	0.683	0.751	0.663	0.753	0.762	0.827	–
NCI-H661	–	–	–	–	0.691	0.71	0.731	0.8	0.672	0.267	0.254	0.275	0.275	0.27	0.654	0.67	0.596	0.714	0.695	–
NCI-H1650	–	–	–	–	0.546	0.756	0.546	0.631	0.676	0.391	0.321	0.383	0.443	0.353	0.737	0.607	0.601	0.759	0.669	–
SK-LU-1	–	–	–	–	0.329	0.365	0.359	0.327	0.371	0.547	0.522	0.531	0.632	0.557	0.369	0.35	0.401	0.432	0.33	–
SW 1573	–	–	–	–	0.722	0.535	0.531	0.62	0.303	0.405	0.311	0.457	0.417	0.39	0.624	0.609	0.81	1	0.689	–
NCI-H520	–	–	–	–	0.281	0.287	0.227	0.235	0.266	0.567	0.579	–	0.658	0.565	0.266	0.294	–	0.237	0.236	–

From the supplement of paper PMC10307832
